Source: article PMC7562955 (Nature Communications, 2020)
Read-outs that look alike come from different tables or passages of the source.

Molecular target: T1, TLR7 (Homo sapiens, UniProt Q9NYK1)
T1 sequence (Q9NYK1 27-1049): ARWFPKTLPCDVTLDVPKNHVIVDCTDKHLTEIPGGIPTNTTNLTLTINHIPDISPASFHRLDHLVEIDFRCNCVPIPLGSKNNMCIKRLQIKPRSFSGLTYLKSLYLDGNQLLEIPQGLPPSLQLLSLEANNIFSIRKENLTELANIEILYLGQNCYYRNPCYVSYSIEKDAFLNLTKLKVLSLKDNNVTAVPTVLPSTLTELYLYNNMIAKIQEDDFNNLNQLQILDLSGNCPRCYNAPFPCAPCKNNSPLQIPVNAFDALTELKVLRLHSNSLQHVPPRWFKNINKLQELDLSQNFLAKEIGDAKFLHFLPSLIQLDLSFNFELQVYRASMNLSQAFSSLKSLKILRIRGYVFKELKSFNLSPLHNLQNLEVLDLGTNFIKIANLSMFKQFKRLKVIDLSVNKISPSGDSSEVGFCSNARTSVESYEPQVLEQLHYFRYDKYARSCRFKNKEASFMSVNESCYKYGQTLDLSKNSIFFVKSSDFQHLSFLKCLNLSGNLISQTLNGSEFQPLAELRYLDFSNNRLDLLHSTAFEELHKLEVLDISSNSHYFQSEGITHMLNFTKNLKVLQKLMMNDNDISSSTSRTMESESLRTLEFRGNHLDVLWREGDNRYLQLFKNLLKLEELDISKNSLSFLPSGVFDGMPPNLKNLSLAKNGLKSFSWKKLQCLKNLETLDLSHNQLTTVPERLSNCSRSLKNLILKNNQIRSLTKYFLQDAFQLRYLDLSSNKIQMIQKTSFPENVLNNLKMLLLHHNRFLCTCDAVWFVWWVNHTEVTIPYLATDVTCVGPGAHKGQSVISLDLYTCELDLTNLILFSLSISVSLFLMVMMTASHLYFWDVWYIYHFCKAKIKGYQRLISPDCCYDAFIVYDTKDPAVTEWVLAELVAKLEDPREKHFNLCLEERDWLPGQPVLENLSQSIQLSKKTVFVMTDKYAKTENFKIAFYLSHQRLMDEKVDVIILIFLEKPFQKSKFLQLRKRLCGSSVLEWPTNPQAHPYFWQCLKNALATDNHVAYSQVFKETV
Assay: Human TLR7 reporter gene inhibitory activity assay (NF-κB/SEAP HEK293)
Format: cell-based
Parameters: host or cells: HEK293 (TLR7/NF-κB/SEAPorter)
Conditions: for IC50 / human TLR7 activity, reporter signal: R848 200 nM
Procedure: Compounds were dissolved in dimethyl sulfoxide. Before stimulation with compound, Human TLR7 reporter cell line (TLR7/NF-κB/SEAPorter^TM HEK293 cell, Novus Biological, USA), human TLR8 reporter cell line (TLR8/NF-κB/SEAPorter^TM HEK293 cell, Novus Biological), and human TLR9 reporter cell line (TLR9/NF-κB/SEAPorter^TM HEK293 cell, Novus Biological) were seeded in 96-well microtiter plate (AGC techno glass, Japan) at 5 × 10^4 cells/well in DMEM (GIBCO, United Kingdam) with 10 % fetal bovine serum (GIBCO), and 10 ug/ml Blastcidin S HCl (GIBCO) and incubated at 37 °C in 5% CO2. The plates were incubated over-night and then stimulated with various concentrations of compound. […] After 30 min, R848 (human TLR7/8 ligand, synthesized at Sumitomo Dainippon Pharma, Japan) or CpG2006 (human TLR9 ligand, Hokkaido System Science Co., Ltd., Japan) added to each well, wherein each final concentration were adjusted to 200 nM R848 (human TLR7), 30 μM R848 (human TLR8), or 500 nM CpG2006 (human TLR9). The plates were then incubated an additional 20 ± 1 h at 37 °C in 5% CO2 and then the secreted embryonic alkaline phosphatase (SEAP) activity was measured as activation of human TLR7, 8, and 9. The SEAP activity was evaluated as follows: pNPP (Invitrogen, USA) was added to the incubated sample (50 μl/well); after 15 min, 4 M sodium hydroxide solution (nacalai tesque, Japan) was added thereto (50 μl/well) to quench the reaction; and the absorbance of each sample was measured at 405 nm with microplate reader SpectraMax M4 (Molecular Devices, USA).

[1] = read-out: TLR7 inhibitory activity IC50

SMILES: CCCCOc1nc(N)c2nc(-c3cccnc3)n(Cc3ccccc3)c2n1 [Cpd-5]
- IC50 (read-out: TLR7 inhibitory potency IC50): 5 µM
- human TLR7 activity, reporter signal (compound 0.0001 nM (as headed)): 2.067
- human TLR7 activity, reporter signal (compound 0.001 nM (as headed)): 1.898
- human TLR7 activity, reporter signal (compound 0.003 nM (as headed)): 1.879
- human TLR7 activity, reporter signal (compound 0.01 nM (as headed)): 1.8207
- human TLR7 activity, reporter signal (compound 0.03 nM (as headed)): 1.853
- human TLR7 activity, reporter signal (compound 0.1 nM (as headed)): 1.8291
- human TLR7 activity, reporter signal (compound 0.3 nM (as headed)): 1.986
- human TLR7 activity, reporter signal (compound 1 nM (as headed)): 1.7924
- human TLR7 activity, reporter signal (compound 3 nM (as headed)): 1.5762
- human TLR7 activity, reporter signal (compound 10 nM (as headed)): 1.162
- human TLR7 activity, reporter signal (compound 30 nM (as headed)): 0.6856
- human TLR7 activity, reporter signal (compound 100 nM (as headed)): 0.7605

SMILES: CCN(CCO)CCCC(C)Nc1ccnc2cc(Cl)ccc12 (stereo not drawn) [HCQ, hydroxychloroquine, reference compound]
- human TLR7 activity, reporter signal (compound 0.0001 nM (as headed)): 1.977
- human TLR7 activity, reporter signal (compound 0.01 nM (as headed)): 1.7427
- human TLR7 activity, reporter signal (compound 0.03 nM (as headed)): 1.684
- human TLR7 activity, reporter signal (compound 0.1 nM (as headed)): 1.7194
- human TLR7 activity, reporter signal (compound 0.3 nM (as headed)): 1.681
- human TLR7 activity, reporter signal (compound 1 nM (as headed)): 1.5856
- human TLR7 activity, reporter signal (compound 3 nM (as headed)): 1.338
- human TLR7 activity, reporter signal (compound 10 nM (as headed)): 1.109
- human TLR7 activity, reporter signal (compound 30 nM (as headed)): 0.2449
- human TLR7 activity, reporter signal (compound 100 nM (as headed)): 0.0133

SMILES: CCOc1nc(N)c2nc(-c3cncc(F)c3)n(Cc3ccc(CN4C[C@@H]5C[C@H]4CN5C)cc3)c2n1 [Cpd-6]
- selectivity for TLR7 over TLR8 and TLR9: high TLR7 selectivity
- IC50 [1]: 0.025 µM
- human TLR7 activity, reporter signal (compound 0.0001 nM (as headed)): 1.983
- human TLR7 activity, reporter signal (compound 0.001 nM (as headed)): 1.907
- human TLR7 activity, reporter signal (compound 0.003 nM (as headed)): 1.643
- human TLR7 activity, reporter signal (compound 0.01 nM (as headed)): 1.354
- human TLR7 activity, reporter signal (compound 0.03 nM (as headed)): 0.8446
- human TLR7 activity, reporter signal (compound 0.1 nM (as headed)): 0.3393
- human TLR7 activity, reporter signal (compound 0.3 nM (as headed)): 0.1771
- human TLR7 activity, reporter signal (compound 1 nM (as headed)): 0.006275
- human TLR7 activity, reporter signal (compound 3 nM (as headed)): -0.01137
- human TLR7 activity, reporter signal (compound 10 nM (as headed)): -0.02343
- human TLR7 activity, reporter signal (compound 30 nM (as headed)): -0.03198
- human TLR7 activity, reporter signal (compound 100 nM (as headed)): -0.04843

SMILES: CCOc1nc(C)c2nc(-c3cncc(F)c3)n(Cc3ccc(CN4C[C@@H]5C[C@H]4CN5C)cc3)c2n1 [Cpd-7]
- selectivity for TLR7 over TLR8 and TLR9: high TLR7 selectivity
- IC50 [1]: 0.015 µM
- human TLR7 activity, reporter signal (compound 0.0001 nM (as headed)): 1.983
- human TLR7 activity, reporter signal (compound 0.001 nM (as headed)): 1.718
- human TLR7 activity, reporter signal (compound 0.003 nM (as headed)): 1.528
- human TLR7 activity, reporter signal (compound 0.01 nM (as headed)): 1.179
- human TLR7 activity, reporter signal (compound 0.03 nM (as headed)): 0.5917
- human TLR7 activity, reporter signal (compound 0.1 nM (as headed)): 0.1271
- human TLR7 activity, reporter signal (compound 0.3 nM (as headed)): 0.01692
- human TLR7 activity, reporter signal (compound 1 nM (as headed)): -0.02107
- human TLR7 activity, reporter signal (compound 3 nM (as headed)): -0.03277
- human TLR7 activity, reporter signal (compound 10 nM (as headed)): -0.02908
- human TLR7 activity, reporter signal (compound 30 nM (as headed)): -0.03703
- human TLR7 activity, reporter signal (compound 100 nM (as headed)): -0.01692
